Bounds are passed on as bounds.

The values below come from patent publication US10752640B2, “Compounds active towards bromodomains” (NUEVOLUTION A/S, priority 2014, dated 2020).

The target in this experiment is BRD4 protein (Homo sapiens, UniProt O60885). In words: FRET assay, half maximal inhibitory concentration (IC50). The experiment is classed as binding. The following applies: BRD4 protein 50 nM, Biotin-H4KAc4 peptide 12.5 nM; List of Classification. The essentials:
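Acetylated histone H4 peptide binding (biotin-H4KAc4, 12.5 nM final) to BRD4 (50 nM final) detected by TR-FRET between streptavidin cryptate (2.4 nM) and GST-XL665 antibody (10 nM) in KF/BSA. Buffer: HEPES pH 7.5, NaCl, CHAPS. Compound dilutions from 50 μM in 12.5% DMSO were preincubated with protein for 30 min. Variable-slope IC50.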
Consider `Cc1cc(O)nc2c(C)cc(NC(=O)c3cc(-c4ccoc4)ccc3N3CCOCC3)cc12` [Compound-157, 5-(3-furyl)-N-(2-hydroxy-4,8-dimethyl-6-quinolyl)-2-morpholino-benzamide], for which the IC50 was < 200 nM.

In the case of `COc1cc2nc(O)cc(C)c2cc1NC(=O)c1cc(-c2cnn(C)c2)ccc1N1CCOCC1` [Compound-159, N-(2-hydroxy-7-methoxy-4-methyl-6-quinolyl)-5-(1-methylpyrazol-4-yl)-2-morpholino-benzamide], the concentration for half-maximal inhibition (IC50) is < 200 nM.

Compound `COc1cc2nc(O)cc(C)c2cc1NC(=O)c1cc(-c2ccoc2)ccc1N1CCOCC1` [Compound-160, 5-(3-furyl)-N-(2-hydroxy-7-methoxy-4-methyl-6-quinolyl)-2-morpholino-benzamide] registered a half-maximal inhibitory concentration (IC50) of 500 to 1000 nM. With `COc1cc2nc(O)cc(C)c2cc1NC(=O)c1cc(-c2c(C)noc2C)ccc1N1CCOCC1` [Compound-161, 5-(3,5-dimethylisoxazol-4-yl)-N-(2-hydroxy-7-methoxy-4-methyl-6-quinolyl)-2-morpholino-benzamide] the figure was < 200 nM; with `Cc1cc2nc(O)cc(C)c2cc1NC(=O)c1cc(-c2cnoc2)ccc1N1CCOCC1` [Compound-163, N-(2-hydroxy-4,7-dimethyl-6-quinolyl)-5-isoxazol-4-yl-2-morpholino-benzamide], < 200 nM. With `Cc1cc2[nH]c(=O)cc(C)c2cc1NC(=O)c1cc(C#N)ncc1N1CCOCC1` [Compound-164, 2-cyano-N-(4,7-dimethyl-2-oxo-1H-quinolin-6-yl)-5-morpholino-pyridine-4-carboxamide] the figure was < 200 nM; with `CC(C)c1cc(O)nc2ccc(NC(=O)c3cc(S(=O)(=O)N(C)C)ccc3N3CCCC3)cc12` [Compound-165, 5-(dimethylsulfamoyl)-N-(2-hydroxy-4-isopropyl-6-quinolyl)-2-pyrrolidin-1-yl-benzamide], < 200 nM; with `Cc1cc(O)nc2ccc(NC(=O)c3cc(-c4cnn(C)c4)ccc3N3CCOCC3)cc12` [Compound-166, N-(2-hydroxy-4-methyl-6-quinolyl)-5-(1-methylpyrazol-4-yl)-2-morpholino-benzamide], < 200 nM. With `Cc1cc(O)nc2ccc(NC(=O)c3cc(-c4ccoc4)ccc3N3CCOCC3)cc12` [Compound-167, 5-(3-furyl)-N-(2-hydroxy-4-methyl-6-quinolyl)-2-morpholino-benzamide] the figure was < 200 nM. Turning to `Cc1cc(O)nc2ccc(NC(=O)c3cc(C(C)O)ccc3N3CCOCC3)cc12` (stereo not drawn) [Compound-168, N-(2-hydroxy-4-methylquinolin-6-yl)-5-(1-hydroxyethyl)-2-morpholinobenzamide], the half-inhibitory concentration (IC50) was < 200 nM. As for `COc1cc(NC(=O)c2cc(-c3cnn(C)c3)cnc2N2CCOCC2)cc2c(C)cc(O)nc12` [Compound-169, N-(2-hydroxy-8-methoxy-4-methylquinolin-6-yl)-5-(1-methyl-1H-pyrazol-4-yl)-2-morpholinonicotinamide], the IC50 was < 200 nM. To `COc1cc2nc(O)cc(C)c2cc1NC(=O)c1cc(-c2cnn(C)c2)cnc1N1CCOCC1` [Compound-170, N-(2-hydroxy-7-methoxy-4-methylquinolin-6-yl)-5-(1-methyl-1H-pyrazol-4-yl)-2-morpholinonicotinamide] belongs < 200 nM. With `Cc1cc2nc(O)cc(C)c2cc1NC(=O)c1cc(-c2cnn(C)c2)cnc1N1CCOCC1` [Compound-171, N-(2-hydroxy-4,7-dimethylquinolin-6-yl)-5-(1-methyl-1H-pyrazol-4-yl)-2-morpholinonicotinamide] the figure was < 200 nM; with `Cc1cc(=O)[nH]c2ccc(NC(=O)c3cc(S(=O)(=O)N(C)C)ccc3N3CC[C@@H](F)C3)cc12` [Compound-172, (R)-5-(N,N-dimethylsulfamoyl)-2-(3-fluoropyrrolidin-1-yl)-N-(4-methyl-2-oxo-1,2-dihydroquinolin-6-yl)benzamide], < 200 nM.

As for `Cc1cc(=O)[nH]c2ccc(NC(=O)c3cc(S(=O)(=O)N(C)C)ccc3N3CC[C@H](F)C3)cc12` [Compound-173, (S)-5-(N,N-dimethylsulfamoyl)-2-(3-fluoropyrrolidin-1-yl)-N-(4-methyl-2-oxo-1,2-dihydroquinolin-6-yl)benzamide], the half-inhibitory concentration (IC50) is < 200 nM.

With `Cc1cc(O)nc2ccc(NC(=O)c3cc(-c4ccoc4)cnc3N3CCOCC3)cc12` [Compound-174, 5-(furan-3-yl)-N-(2-hydroxy-4-methylquinolin-6-yl)-2-morpholinonicotinamide], the IC50 was in the range of 500 to 1000 nM.

Consider `Cc1cc(O)nc2ccc(NC(=O)c3cc(-c4cnn(C)c4)cnc3N3CCOCC3)cc12` [Compound-175, N-(2-hydroxy-4-methylquinolin-6-yl)-5-(1-methyl-1H-pyrazol-4-yl)-2-morpholinonicotinamide], for which the IC50 was < 200 nM. To `Cc1cc(O)nc2ccc(NC(=O)c3cc(-c4cnoc4)cnc3N3CCOCC3)cc12` [Compound-176, N-(2-hydroxy-4-methylquinolin-6-yl)-5-(isoxazol-4-yl)-2-morpholinonicotinamide] belongs < 200 nM; to `Cc1noc(C)c1-c1cnc(N2CCOCC2)c(C(=O)Nc2ccc3nc(O)cc(C)c3c2)c1` [Compound-177, 5-(3,5-dimethylisoxazol-4-yl)-N-(2-hydroxy-4-methylquinolin-6-yl)-2-morpholinonicotinamide], < 200 nM; to `Cc1cc(O)nc2ccc(NC(=O)c3cc(-c4ccoc4)cnc3N3CC4(COC4)C3)cc12` [Compound-178, 5-(furan-3-yl)-N-(2-hydroxy-4-methylquinolin-6-yl)-2-(2-oxa-6-azaspiro[3.3]heptan-6-yl)nicotinamide], 500 to 1000 nM. With `Cc1cc(O)nc2c(C)cc(NC(=O)c3cc(-c4ccoc4)cnc3N3CCOCC3)cc12` [Compound-179, 5-(furan-3-yl)-N-(2-hydroxy-4,8-dimethylquinolin-6-yl)-2-morpholinonicotinamide] the figure was < 200 nM. With `Cc1nnc(-c2ccc(N3CCOCC3)c(C(=O)Nc3ccc4nc(O)cc(C)c4c3)c2)o1` [Compound-180, N-(2-hydroxy-4-methylquinolin-6-yl)-5-(5-methyl-1,3,4-oxadiazol-2-yl)-2-morpholinobenzamide] the figure was < 200 nM.

On to `Cc1cc(O)nc2ccc(NC(=O)c3cc(-c4nnn[nH]4)ccc3N3CCOCC3)cc12` [Compound-181, N-(2-hydroxy-4-methylquinolin-6-yl)-2-morpholino-5-(1H-tetrazol-5-yl)benzamide], for which the half-inhibitory concentration (IC50) was < 200 nM.

`Cc1cc(O)nc2ccc(NC(=O)c3cc(C(=O)O)ccc3N3CCOCC3)cc12` [Compound-182, 3-(2-hydroxy-4-methylquinolin-6-ylcarbamoyl)-4-morpholinobenzoic acid]: the IC50 was < 200 nM.

As to `Cc1cc(O)nc2ccc(NC(=O)c3cc(C#N)cnc3N3CCOCC3)cc12` [Compound-183, 5-cyano-N-(2-hydroxy-4-methylquinolin-6-yl)-2-morpholinonicotinamide], the IC50 is 500 to 1000 nM.

Regarding `Cc1cc(O)nc2ccc(NC(=O)c3cc(Br)cnc3N3CCC(F)C3)cc12` (stereo not drawn) [Compound-184, 5-bromo-2-(3-fluoropyrrolidin-1-yl)-N-(2-hydroxy-4-methylquinolin-6-yl) nicotinamide], the IC50 was 500 to 1000 nM. To `Cc1cc(O)nc2ccc(NC(=O)c3cc(N4CCN(C)CC4)cnc3N3CCOCC3)cc12` [Compound-185, N-(2-hydroxy-4-methylquinolin-6-yl)-5-(4-methylpiperazin-1-yl)-2-morpholinonicotinamide] belongs < 200 nM.
